For experiment [1], the system named is human umbilical vein endothelial cells (HUVECs). Kind of experiment: SWELL1, pAKT2 and p-eNOS western blots in HUVECs. The experiment is classed as cell-based. The conditions noted are these: 96 h. Here is the method: HUVECs were purchased from ATCC (CRL-2922^TM) and were grown in M199 growth media supplemented with 20% FBS, 0.05 g Heparin Sodium Salt (Alfa Aesar), and 15 mg ECGS (Millipore Sigma). Cells were cultured on 1% of gelatin-coated plates at 37 °C and 5% CO2. For SN-40X stimulated eNOS and AKT signaling assays, HUVECs were treated for 96 h with the respective compounds and serum-starved overnight (+DMSO or +SN-40X) for 16 h in M199 media plus 1% FBS (Atlanta Biological). After the serum starve, HUVECs were returned to normal growth media for 30 min (+DMSO or +SN-40X) prior to lysate collection. Small interfering RNA (siRNA) mediated knockdown was adapted from Koh et. al., 2008[81]. Briefly, HUVECs were transfected with either a silencer select siRNA with si-SWELL1 (Cat#4392420, sense: […] antisense: […], Invitrogen) or a non-targeting control silencer select siRNA (Cat# 4390846, Invitrogen) upon reaching 90–95% confluency. siRNA was transfected twice, 24 and 72 h after initial seeding of HUVECs. Each siRNA was combined with Opti-MEM (285.25 µl, Cat#11058-021, Invitrogen) siPORT™ amine (8.75 µl, Cat#AM4503, Invitrogen), and the silencer select siRNA (6 µl) in a final volume of 300 µl. HUVECs were transfected for 4 h at 37 °C in 1% FBS containing DMEM media. For short hairpin RNA (shRNA) mediated knockdown approach, HUVECs were transduced with either human adenovirus type 5 targeting SWELL1 (Ad5-shSWELL1) or scrambled non-targeting control (Ad5-shSCR) at a multiplicity of infection (MOI) of 50 for 24 h at 37 °C upon reaching 70% confluency. The cells were then washed with DMEM media and transduced a second time, with a fresh virus, with an MOI of 25 for 12 h at 37 °C. After the final transduction step, the cells were serum-starved as described above for HUVECs, and lysates were collected. The SN-40X compounds were present in the culture media throughout the transfection/transduction for both the si/sh RNA mediated knockdown approaches. HEK-293 (ATCC, #CRL-1573™) cells were maintained in 90% DMEM (25 mM D-Glucose and 4 mM L-Glutamine) containing 10% fetal bovine serum (FBS) and 100 IU penicillin and 100 µg/ml streptomycin.
Adipocytes were washed twice in ice-cold phosphate buffer saline and lysed in RIPA buffer (150 mM NaCl, 20 mM HEPES, 1% NP-40, 5 mM EDTA, pH 7.4) with proteinase/phosphatase inhibitors (Roche). The cell lysate was further sonicated in 10 s cycle intervals 2–3 times and centrifuged at 18,407×g for 30 min at 4 °C and repeated one more time to remove the excess fat. The supernatant was collected and further estimated for protein concentration using a DC protein assay kit (Bio-Rad). Fat and liver tissues were homogenized and suspended in RIPA buffer with inhibitors and further processed in a similar fashion as described above. HUVECs were also prepared in a similar fashion except the lysates were spun only once to remove the cells debris to obtain the clear supernatant. For islets, either human or mouse islets were washed twice with phosphate buffer saline (PBS) and lysed using RIPA buffer containing protease and phosphatase inhibitors. The lysate was further clarified by freezing in liquid nitrogen for about 10 s for three cycles. The supernatant was collected from the whole lysate centrifuged at 16,260×g for 20 min at 4 °C. […] For soleus muscle, the tissue was homogenized in a Bullet Blender homogenizer (Speed-9, Time-3 mins) in 8 volumes of ice-cold muscle homogenization buffer (50 mM Tris, 25 mM NaCl, 0.2% Nonidet P-40, 5 mM EGTA, 2.5 mM EDTA, 20 mM NaF, 20 mM Na4P2O7·10H2O, 2 mM Na3VO4, pH 7.4) supplemented with protease/phosphatase inhibitor (Roche). The homogenized lysate was centrifuged two times at 18,500×g for 20 min at 4 °C and supernatant was collected for protein estimation. Protein samples were further prepared by boiling in 2X or 4X Laemmli buffer. […]

The subject of experiment [2] is T1, SWELL1 protein in 3T3-F442A adipocytes.
T1 construct: host or cells: 3T3-F442A preadipocytes and differentiated adipocytes (wild type)
The experiment is described as follows: SWELL1 protein under glucolipotoxic stress (palmitate + glucose). The experiment is classed as cell-based, murine. The conditions noted are these: 10 µM 96 h pretreatment, then 1 mM palmitate + 25 mM glucose 16 h. Here is the method: In the case of 3T3-F442A adipocytes, the WT and KO cells were treated with either vehicle (DMSO), 1 or 10 µM SN-40X (after 7–11 days of differentiation) for 96 h and then stimulated with 0 and 10 nM insulin/serum-containing media with vehicle (DMSO) or SN-40X for 15 min for SWELL1 detection. […] To simulate glucolipotoxicity, 8 mM sodium palmitate was dissolved in 18.4% fatty-acid free BSA at 37 °C in DMEM medium with 25 mM glucose to obtain a conjugation ratio of 1:3 palmitate:BSA[80].

Experiment [3] deals with pancreatic islets of T2D mice. The experiment is described as follows: Insulin secretion of treated T2D mice (serum insulin, islet perifusion GSIS). The experiment is classed as in vivo, mouse. How it is done: Mice were fasted for 6 h prior to glucose tolerance tests (GTT). Baseline glucose levels at 0 min timepoint (fasting glucose, FG) were measured from a blood sample collected from tail snipping using glucometer (Bayer Healthcare LLC). Either 1 or 0.75 g D-Glucose/kg body weight were injected (i.p.) for lean or HFD mice, respectively and glucose levels were measured at 5 or 7, 15, 30, 60, 90, and 120 min timepoints after injection. For insulin tolerance tests (ITTs), the mice were fasted for 4 h. Similar to GTTs, the baseline blood glucose levels were measured at 0 min timepoint and 15, 30, 60, 90, and 120 min timepoints post-injection (i.p.) of insulin (HumulinR, 1 U/kg bodyweight for lean mice or 1.25 U/kg body weight for HFD mice). […] The collected plasma was then measured for insulin content by using Ultra-Sensitive Mouse Insulin ELISA Kit (Crystal Chem, #90080). All mouse studies were performed in a blinded fashion.

For `CCCCC1(C2CCCC2)Cc2cc(OCCCCCC(=O)O)c(Cl)c(Cl)c2C1=O` (stereo not shown) [SN-406, 6-((2-butyl-6,7-dichloro-2-cyclopentyl-1-oxo-2,3-dihydro-1H-inden-5-yl)oxy)hexanoic acid], in experiment [1] (100 nM), the “SWELL1 induction compared to vehicle” value worked out at 1.5 fold, the “basal pAKT2 induction compared to vehicle” value is listed as 2.8 fold and the “p-eNOS induction compared to vehicle” value is on record as 5.5 fold. Also, the “prevention of palmitate/glucose-induced reduction of SWELL1 protein” value in experiment [2] was “entirely prevented”. Besides, the “insulin secretion in perifusion GSIS” value in experiment [3] (islets of HFD-T2D mice, compared to Inactive 1) is reported as “significantly augmented”.

For the compound `CCCCC1(C2CCCC2)Cc2cc(OCCCC(=O)O)c(Cl)c(Cl)c2C1=O` (stereo not shown) [SN-401, 4-((2-butyl-6,7-dichloro-2-cyclopentyl-1-oxo-2,3-dihydro-1H-inden-5-yl)oxy)butanoic acid], the “eNOS phosphorylation (Ser1177)” value in experiment [1] (500 nM) is recorded as “increases”. Moreover, the “dose dependence of p-eNOS induction” value in experiment [1] (different concentrations) was “dose-dependent induction of p-eNOS in HUVECs that saturates beyond 100 nM”. Further, the “prevention of palmitate/glucose-induced reduction of SWELL1 protein” value in experiment [2] is “entirely prevented”. The “impaired GSIS (serum insulin, islet perifusion)” value in experiment [3] (HFD mice, 21 weeks HFD) is on record as “significantly improved”.

On to `CCCCC1(C2CCCC2)Cc2cc(OCC(=O)O)c(Cl)c(Cl)c2C1=O` (stereo not shown) [Inactive 1, 2-((2-butyl-6,7-dichloro-2-cyclopentyl-1-oxo-2,3-dihydro-1H-inden-5-yl)oxy)acetic acid], for which the “effect on SWELL1, pAKT2 and p-eNOS” value in experiment [1] (500 nM) is “no effect”.
